Test results reported in patent US12458650B2, “Urination disorder-improving agent” (ASKA Pharmaceutical Co., Ltd., priority 2019, dated 2025).

Columns and labels:
[1] = system: lower urinary tract obstruction model of rats; assay: Test Example 2: urination function in male rat lower urinary tract obstruction model (cystometry under no anesthesia); assay type: in vivo; settings: Group A: 10 mg/kg oral once a day, 14 days, in comparison with Group C (dutasteride 0.5 mg/kg), FIG. 7, 8
Description: A lower urinary tract obstruction model of rats was used as a test system. A test substance was orally administered to the lower urinary tract obstruction model repeatedly over 14 days to examine the action on the urination function in the lower urinary tract obstruction model. The lower urinary tract obstruction model is not a benign prostatic hyperplasia model with enlarged prostate.
More specifically, the rats (male, Crl:CD(SD), 8-week-old; Charles River Laboratories Japan, Inc.) were operated to form lower urinary tract obstruction and repeatedly received oral administration of the test substance at a frequency of once a day over 14 days. After the completion of the administration, each rat was subjected to bladder catheterization under anesthesia and cystometry under no anesthesia and was evaluated for the residual urine volume and the urination efficiency.
The test substances and the dosage in the test system (male rats with lower urinary tract obstruction) are as follows. • Solvent group (control group): 0.5 v/v % Polysorbate 80 solution, 10 mL/kg (n=8) • Group A: Compound A, 10 mg/kg (n=12) • Group C: Compound C (dutasteride), 0.5 mg/kg (n=11) • Dutasteride is a 5a reductase inhibitor.

bladder specimen = assay: Test Example 3: isometric contraction test of bladder specimen from high-week-old male rats after repeated oral dosing; assay type: in vivo, rat; settings: Group A: 10 mg/kg oral once a day, 2 weeks; compared with Group C (dutasteride 0.3 mg/kg); FIG. 9, 10
Description: High-week-old male rats (22-week-old; Charles River Laboratories Japan, Inc.) were examined and evaluated for the relationship between the test substances and the bladder and urethra contraction reaction. Since the rats are high-week-old, the rats are a model in which the prostate is predicted to be enlarged.
A test substance was orally administered to the high-week-old male rats repeatedly at a frequency of once a day over two (2) weeks, and then, from each rat, a bladder specimen was extracted. The bladder specimen was suspended at a resting tension of about 9.8 mN in a constant-temperature Magnus tube (37° C.) filled with a physiological salt solution aerated with 95% O2-5% CO2 gas and was subjected to an isometric contraction test by applying a square-wave electrical field stimulation (EFS, Amplitude; 0.3 ms, Frequency; 1, 2, 5, 10, 20 Hz, Duration; 5 s); or Carbachol (CCH, 100 nmol/L to 100 μmol/L) and KCl (40, 80 mmol/L).
Solvent group (control group): 0.5 v/v % Polysorbate 80 solution, 10 mL/kg (n=6) • Group A: Compound A, 10 mg/kg (n=6) • Group C: Compound C (dutasteride), 0.3 mg/kg (n=6)

For `CC(=O)O[C@]1(C(C)=O)C[C@@H](O)[C@H]2[C@@H]3C=C(Cl)C4=CC(=O)OC[C@]4(C)[C@H]3CC[C@@]21C` [Compound A, 17α-acetoxy-6-chloro-15β-hydroxy-2-oxa-4,6-pregnadiene-3,20-dione], the “urination function (the residual urine volume, the urination efficiency)” value [1] was “strong improvement action” and the “bladder contraction tension caused by square-wave electrical field stimulation or Carbachol and KCl” value (bladder specimen) was “significantly strong or has a strong directionality”.
